Experiments:
M14 = assay: NCI-60 SRB screen; settings: M14, 48 h; for GI50 / CC50: Homo sapiens; for CC50: read-out: LC50, M14, 48 h
HCT-15 = assay: NCI-60 SRB screen; settings: HCT-15, 48 h; for GI50 / CC50: Homo sapiens; for CC50: read-out: LC50, HCT-15, 48 h
[1] = test system: panel of 60 cancer cell lines; assay: cells; settings: Homo sapiens, read-out: MG_MID GI50
OVCAR-8 [2] = assay: cells; settings: Homo sapiens, OVCAR-8, 48 h; for CC50: read-out: LC50, OVCAR-8, 48 h
UACC-257 = settings: UACC-257, 48 h
HCC-2998 [3] = settings: for TGI: HCC-2998, 48 h
TK-10 = assay: cells; settings: Homo sapiens, TK-10, 48 h; for CC50: read-out: LC50, TK-10, 48 h
HCC-2998 [4] = assay: cells; settings: Homo sapiens, HCC 2998, 48 h
CNS cancer = assay: cells; settings: Homo sapiens; for GI50: read-out: MG_MID GI50; for CC50: read-out: MG_MID LC50
Melanoma = assay: cells; settings: Homo sapiens; for GI50: read-out: MG_MID GI50; for CC50: read-out: MG_MID LC50
NCI-H522 = assay: NCI-60 SRB screen; settings: NCI-H522, 48 h; for GI50 / CC50: Homo sapiens; for CC50: read-out: LC50, NCI-H522, 48 h
COLO 205 [5] = assay: cells; settings: Homo sapiens, COLO 205, 48 h; for CC50: read-out: LC50, COLO 205, 48 h
Prostate Cancer = assay: cells; settings: Homo sapiens, read-out: MG_MID GI50
SN12C = assay: cells; settings: Homo sapiens, 48 h; for CC50: read-out: LC50, SN12C, 48 h
NCI-H322M = assay: NCI-60 SRB screen; settings: 48 h; for GI50 / CC50: Homo sapiens; for CC50: read-out: LC50, NCI-H322M, 48 h
EKVX = assay: NCI-60 SRB screen; settings: 48 h; for GI50 / CC50: Homo sapiens; for CC50: read-out: LC50, EKVX, 48 h
OVCAR-8 [6] = settings: OVCAR-8, 48 h
COLO 205 [7] = settings: COLO 205, 48 h
HS 578T = assay: cells; settings: Homo sapiens, 48 h; for GI50: HS 578T; for CC50: read-out: LC50
OVCAR-4 = settings: OVCAR-4, 48 h
Ovarian cancer [8] = assay: cells; settings: Homo sapiens; for GI50: read-out: MG_MID GI50; for CC50: read-out: MG_MID LC50
MOLT-4 = assay: cells; settings: Homo sapiens, MOLT-4, 48 h; for CC50: read-out: LC50, MOLT-4, 48 h
SK-OV-3 = assay: cells; settings: Homo sapiens, SK-OV-3, 48 h; for CC50: read-out: LC50, SK-OV-3, 48 h
NCI-H23 = assay: cells; settings: Homo sapiens, NCI-H23, 48 h; for CC50: read-out: LC50, NCI-H23, 48 h
BT-549 = settings: for TGI: BT-549, 48 h
MDA-MB-231/ATCC [9] = settings: 48 h
Ovarian cancer [10] = settings: Ovarian cancer subpanel
MDA-MB-231/ATCC [11] = assay: cells; settings: Homo sapiens, MDA-MB-231, 48 h; for GI50: MDA-MB-231/ATCC, 48 h; for CC50: read-out: LC50, MDA-MB-231/ATCC, 48 h
U251 = assay: NCI-60 SRB screen; settings: for GI50 / CC50: Homo sapiens, U-251, 48 h; for GI50 / TGI: U251, 48 h; for CC50: read-out: LC50, U251, 48 h
MCF7 = assay: NCI-60 SRB screen; settings: MCF7, 48 h; for GI50: Homo sapiens
MDA-MB-435 = assay: cells; settings: Homo sapiens, MDA-MB-435, 48 h; for CC50: read-out: LC50, MDA-MB-435, 48 h

Molecule CCCCC(C(=O)O)N1C(=O)/C(=C/C=C/c2ccc([N+](=O)[O-])o2)SC1=S (centres unmarked) [6b, 2-((Z)-5-((E)-3-(5-nitrofuran-2-yl)allylidene)-4-oxo-2-thioxothiazolidin-3-yl)hexanoic acid] has a GI50 (M14) of 1830 nM, a CC50 (M14) of 7.66 µM and a TGI (M14) of 3.75 µM. The TGI (HCT-15) was 3.58 µM, the GI50 (HCT-15) was 1710 nM and the CC50 (HCT-15) was 7.47 µM. For the same molecule, the GI50 [1] was 2300 nM, the GI50 (OVCAR-8 [2]) was 2120 nM and the CC50 (OVCAR-8 [2]) was 13.8 µM. It also gave a TGI (UACC-257) of 4.31 µM, a TGI (HCC-2998 [3]) of 3.34 µM and a GI50 (TK-10) of 3130 nM. The CC50 (TK-10) was 28.3 µM, the GI50 (HCC-2998 [4]) was 1830 nM and the GI50 (CNS cancer) was 2010 nM. The CC50 (CNS cancer) was 12 µM, the GI50 (Melanoma) was 1780 nM and the CC50 (Melanoma) was 7.07 µM. The GI50 (NCI-H522) was 1740 nM, the CC50 (NCI-H522) was 6.78 µM and the TGI (NCI-H522) was 3.43 µM. For the same molecule, the GI50 (COLO 205 [5]) was 2020 nM, the CC50 (COLO 205 [5]) was 6.65 µM and the GI50 (Prostate Cancer) was 3290 nM. It also gave a GI50 (SN12C) of 1750 nM, a CC50 (SN12C) of 9.18 µM and a TGI (NCI-H322M) of 15.0 µM. For the same molecule, the GI50 (NCI-H322M) was 3840 nM, the CC50 (NCI-H322M) was 43.9 µM and the TGI (EKVX) was 5.74 µM. It also gave a GI50 (EKVX) of 2260 nM, a CC50 (EKVX) of 19.7 µM and a TGI (OVCAR-8 [6]) of 4.86 µM. The TGI (COLO 205 [7]) was 3.66 µM, the GI50 (HS 578T) was 3380 nM and the CC50 (HS 578T) was > 100 µM. The TGI (OVCAR-4) was 19.0 µM, the GI50 (Ovarian cancer [8]) was 3320 nM and the CC50 (Ovarian cancer [8]) was 25.7 µM. The GI50 (MOLT-4) was 3280 nM, the CC50 (MOLT-4) was 90.2 µM and the GI50 (SK-OV-3) was 6.27 µM. The CC50 (SK-OV-3) was 46.7 µM, the GI50 (NCI-H23) was 1850 nM and the CC50 (NCI-H23) was 6.64 µM. For the same molecule, the TGI (BT-549) was 3.12 µM, the TGI (MDA-MB-231/ATCC [9]) was 4.45 µM and the “MG_MID TGI” value (Ovarian cancer [10]) was 9.10 µM. The GI50 (MDA-MB-231/ATCC [11]) was 2270 nM, the CC50 (MDA-MB-231/ATCC [11]) was 8.73 µM and the GI50 (U251) was 1910 nM. The CC50 (U251) was 11 µM, the TGI (U251) was 4.42 µM and the GI50 (MCF7) was 1640 nM. For the same molecule, the TGI (MCF7) was 4.11 µM, the GI50 (MDA-MB-435) was 1810 nM and the CC50 (MDA-MB-435) was 6.61 µM.

CC(C)C(C(=O)O)N1C(=O)/C(=C/C=C/c2ccc([N+](=O)[O-])o2)SC1=S (centres unmarked) [5b, 3-Methyl-2-((Z)-5-((E)-3-(5-nitrofuran-2-yl)allylidene)-4-oxo-2-thioxothiazolidin-3-yl)butanoic acid] showed a GI50 (M14) of 1600 nM, a CC50 (M14) of 6.44 µM and a TGI (M14) of 3.21 µM. The TGI (HCT-15) was 2.18 µM, the GI50 (HCT-15) was 730 nM and the CC50 (HCT-15) was 5.32 µM. The GI50 [1] was 1400 nM, the GI50 (OVCAR-8 [2]) was 1490 nM and the CC50 (OVCAR-8 [2]) was 25.1 µM. The TGI (UACC-257) was 3.27 µM, the “growth GP” value (HCC-2998 [3]; HCC-2998, 10 μM, 48 h) was -95.90% and the TGI (HCC-2998 [3]) was 3.22 µM. It also gave a GI50 (TK-10) of 2240 nM, a CC50 (TK-10) of 7.23 µM and a GI50 (HCC-2998 [4]) of 1720 nM. The GI50 (CNS cancer) was 1280 nM, the CC50 (CNS cancer) was 5.93 µM and the GI50 (Melanoma) was 1250 nM. For the same molecule, the CC50 (Melanoma) was 5.59 µM, the GI50 (NCI-H522) was 1120 nM and the CC50 (NCI-H522) was 5.69 µM. For the same molecule, the TGI (NCI-H522) was 2.53 µM, the GI50 (COLO 205 [5]) was 1330 nM and the CC50 (COLO 205 [5]) was 5.83 µM. The GI50 (Prostate Cancer) was 1620 nM, the GI50 (SN12C) was 790 nM and the CC50 (SN12C) was 4.96 µM. For the same molecule, the TGI (NCI-H322M) was 3.88 µM, the GI50 (NCI-H322M) was 1820 nM and the CC50 (NCI-H322M) was 8.29 µM. It also gave a TGI (EKVX) of 4.80 µM, a GI50 (EKVX) of 2010 nM and a CC50 (EKVX) of 13.9 µM. For the same molecule, the TGI (OVCAR-8 [6]) was 4.78 µM, the TGI (COLO 205 [7]) was 2.79 µM and the GI50 (HS 578T) was 2090 nM. For the same molecule, the CC50 (HS 578T) was > 100 µM, the TGI (OVCAR-4) was 6.72 µM and the GI50 (Ovarian cancer [8]) was 1920 nM. For the same molecule, the CC50 (Ovarian cancer [8]) was 17.4 µM, the GI50 (MOLT-4) was 2340 nM and the CC50 (MOLT-4) was > 100 µM. It also gave a GI50 (SK-OV-3) of 2.79 µM, a CC50 (SK-OV-3) of 33.9 µM and a GI50 (NCI-H23) of 1750 nM. The CC50 (NCI-H23) was 6.63 µM, the “growth GP” value (BT-549; BT-549, 10 μM, 48 h) was -98.16% and the TGI (BT-549) was 2.14 µM. The TGI (MDA-MB-231/ATCC [9]) was 3.03 µM, the “MG_MID TGI” value (Ovarian cancer [10]) was 5.19 µM and the GI50 (MDA-MB-231/ATCC [11]) was 1560 nM. The CC50 (MDA-MB-231/ATCC [11]) was 5.9 µM, the GI50 (U251) was 500 nM and the CC50 (U251) was 4.64 µM. The TGI (U251) was 1.79 µM, the GI50 (MCF7) was 430 nM and the TGI (MCF7) was 1.83 µM. It also gave a GI50 (MDA-MB-435) of 850 nM and a CC50 (MDA-MB-435) of 5.01 µM.

— publication PMC12655351, “Synthesis and Anticancer Activity Evaluation of New 5-((5-Nitrofuran-2-yl)allylidene)-2-thioxo-4-thiazolidinones” (Pharmaceuticals, 2025)
